Laboratory results as given in patent US20140148432A1, “Compounds for the Treatment of Neurological Disorders” (priority 2009, published 2014).
Read-outs that look alike come from different tables or passages of the source.

Assays:
[1] = biological target: GluN1/GluN2D subtype of NMDA receptors (Rattus norvegicus, UniProt Q62645); experiment: NMDA receptor subunit selectivity, GluN1/GluN2D in Xenopus oocytes; type: cell-based; conditions: 2 min; 10 μM antagonist with 50 μM glutamate and 30 μM glycine, two min; agonists alone = 100%; read-out: GluN2D % Current Remaining
Sequence of GluN1/GluN2D subtype of NMDA receptors (Q62645 28-1323, other chains not shown): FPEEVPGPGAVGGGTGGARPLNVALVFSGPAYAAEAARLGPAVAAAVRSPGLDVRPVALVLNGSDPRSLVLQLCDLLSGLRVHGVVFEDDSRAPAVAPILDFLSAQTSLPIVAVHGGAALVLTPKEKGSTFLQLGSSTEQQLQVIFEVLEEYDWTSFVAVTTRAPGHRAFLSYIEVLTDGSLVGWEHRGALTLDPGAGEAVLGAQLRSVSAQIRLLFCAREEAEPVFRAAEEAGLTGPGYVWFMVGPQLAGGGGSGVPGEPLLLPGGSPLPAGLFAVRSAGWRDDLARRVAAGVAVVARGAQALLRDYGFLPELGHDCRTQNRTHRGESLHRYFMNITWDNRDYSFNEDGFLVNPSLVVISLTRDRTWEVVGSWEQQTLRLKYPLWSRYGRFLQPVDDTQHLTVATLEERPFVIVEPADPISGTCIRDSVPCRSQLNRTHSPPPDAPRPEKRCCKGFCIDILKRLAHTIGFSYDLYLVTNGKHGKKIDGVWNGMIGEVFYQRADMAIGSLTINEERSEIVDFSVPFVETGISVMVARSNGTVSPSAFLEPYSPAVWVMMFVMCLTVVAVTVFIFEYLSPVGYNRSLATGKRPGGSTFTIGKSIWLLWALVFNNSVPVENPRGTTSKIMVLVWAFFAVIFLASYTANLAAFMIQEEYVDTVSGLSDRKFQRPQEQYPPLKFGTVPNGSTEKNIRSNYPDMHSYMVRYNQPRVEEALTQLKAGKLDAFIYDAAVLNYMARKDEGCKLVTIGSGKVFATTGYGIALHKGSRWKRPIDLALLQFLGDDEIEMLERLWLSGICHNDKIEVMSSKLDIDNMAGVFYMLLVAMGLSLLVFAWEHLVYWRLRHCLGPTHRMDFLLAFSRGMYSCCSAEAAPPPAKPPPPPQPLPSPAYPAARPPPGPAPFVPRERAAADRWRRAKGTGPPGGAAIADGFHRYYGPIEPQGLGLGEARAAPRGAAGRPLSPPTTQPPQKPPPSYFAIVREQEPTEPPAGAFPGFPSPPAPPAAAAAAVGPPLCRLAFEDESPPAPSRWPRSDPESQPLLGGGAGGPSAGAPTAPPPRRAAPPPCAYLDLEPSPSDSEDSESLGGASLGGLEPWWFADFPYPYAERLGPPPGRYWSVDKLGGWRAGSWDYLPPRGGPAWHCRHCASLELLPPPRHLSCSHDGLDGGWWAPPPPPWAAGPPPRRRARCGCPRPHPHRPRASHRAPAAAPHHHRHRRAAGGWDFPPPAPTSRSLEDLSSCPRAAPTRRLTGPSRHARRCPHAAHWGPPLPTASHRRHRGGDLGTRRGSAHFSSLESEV
Method: (§1) Stage V and VI oocytes were surgically removed from the ovaries of large, well-fed and healthy Xenopus laevis anesthetized with 3-amino-benzoic acid ethyl ester (3 gm/l). Clusters of isolated oocytes were incubated with 292 U/ml Worthington (Freehold, N.J.) type IV collagenase or 1.3 mg/ml collagenase (Life Technologies, Gaithersburg, Md.; 17018-029) for 2 hr in Ca^2+-free solution comprised of (in mM) 115 NaCl, 2.5 KCl, and 10 HEPES, pH 7.5, with slow agitation to remove the follicular cell layer. Oocytes were then washed in the same solution supplemented with 1.8 mM CaCl2 and maintained in Barth's solution comprised of (in mM): 88 NaCl, 1 KCl, 2.4 NaHCO3, 10 HEPES, 0.82 MgSO4, 0.33 Ca(NO3)2, and 0.91 CaCl2 and supplemented with 100 μg/ml gentamycin, 10 μg/ml streptomycin, and 10 μg/ml penicillin. Oocytes were manually defolliculated and injected within 24 hrs of isolation with 3-5 ng of GluN1 subunit cRNA and 7-10 ng of GluN2 cRNA subunit in a 50 nl volume, and incubated in Barth's solution at 18° C. for 2-7 d. Glass injection pipettes had tip sizes ranging from 10-20 microns, and were backfilled with mineral oil. cRNA was synthesized from linearized template cDNA for rat glutamate receptor subunits according to manufacturer specifications (Ambion).
(§2) Two electrode voltage-clamp recordings were made 2-7 days post-injection. Oocytes were placed in a dual-track plexiglass recording chamber with a single perfusion line that splits in a Y-configuration to perfuse two oocytes. Dual recordings were made at room temperature (23° C.) using two Warner 00725B two-electrode voltage clamp amplifiers, arranged as recommended by the manufacturer. Glass microelectrodes (1-10 Megaohms) were filled with 300 mM KCl (voltage electrode) or 3 M KCl (current electrode). The bath clamps communicated across silver chloride wires placed into each side of the recording chamber, both of which were assumed to be at a reference potential of 0 mV. Oocytes were perfused with a solution comprised of (in mM) 90 NaCl, 1 KCl, 10 HEPES, […] and 0.5 BaCl2; pH was adjusted by addition of 1-3 M NaOH or HCl. Oocytes were recorded under voltage clamp at −40 mV. Final concentrations for glutamate and glycine were 50 μM and 30 μM, respectively. Concentration-response curves for experimental compounds were obtained by applying in successive fashion maximal glutamate/glycine, followed by glutamate/glycine plus variable concentrations of experimental compounds. Dose response curves consisting of 4 to 8 concentrations were obtained in this manner. The baseline leak current at −40 mV was measured before and after recording, and the full recording linearly corrected for any change in leak current. The level of inhibition by applied experimental compounds was expressed as a percent of the initial glutamate response, and averaged together across oocytes from multiple experiments. Results were pooled, and the average percent responses at antagonist concentrations were fit by the equation,
(§3) GluN1/GluN2A and GluN1/GluN2D subtype of NMDA receptors were expressed in Xenopus laevis as described in Example 13. Here, a 10 μM concentration of the antagonist was perfused with 50 μM glutamate and 30 μM glycine onto the oocyte for two min and the remaining current in the presence of the antagonist was compared to the maximal current obtained with 50 μM glutamate and 30 μM glycine alone (defined as 100%).

GluN1/GluN2B receptors [2] = biological target: GluN1/GluN2B receptors (Rattus norvegicus, UniProt P35439+Q00960); experiment: IC50 of GluN1/GluN2B receptors expressed in Xenopus oocytes (two electrode voltage-clamp), rat; type: cell-based; conditions: pH 7.4, 50 μM glutamate, 30 μM glycine
Method: as §1, §2
Percent Response=(100−minimum)/(1+([conc]/IC50)^nH)+minimum
where minimum is the residual percent response in saturating concentration of the experimental compounds, IC50 is the concentration of antagonist that causes half of the achievable inhibition, and nH is a slope factor describing steepness of the inhibition curve. Minimum was constrained to be greater than or equal to 0.
Recordings were made at pH 6.9, pH 7.4, and pH 7.6. The pH Boost ratio calculated by dividing the IC50 measured at pH 7.6 by the IC50 measured at pH 6.9.

GluN1/GluN2B receptors [3] = biological target: GluN1/GluN2B receptors (Homo sapiens, UniProt Q05586+Q13224); experiment: IC50 of GluN1/GluN2B receptors expressed in Xenopus oocytes (two electrode voltage-clamp), human; type: cell-based; conditions: for Human pH Boost Ratio (IC50 pH 7.6/IC50 pH 6.9): IC50 at pH 7.6 divided by IC50 at pH 6.9; for IC50: 30 μM glycine
Sequence of GluN1/GluN2B receptors (Homo sapiens, UniProt Q05586+Q13224) (Q13224 27-1484, other chains not shown): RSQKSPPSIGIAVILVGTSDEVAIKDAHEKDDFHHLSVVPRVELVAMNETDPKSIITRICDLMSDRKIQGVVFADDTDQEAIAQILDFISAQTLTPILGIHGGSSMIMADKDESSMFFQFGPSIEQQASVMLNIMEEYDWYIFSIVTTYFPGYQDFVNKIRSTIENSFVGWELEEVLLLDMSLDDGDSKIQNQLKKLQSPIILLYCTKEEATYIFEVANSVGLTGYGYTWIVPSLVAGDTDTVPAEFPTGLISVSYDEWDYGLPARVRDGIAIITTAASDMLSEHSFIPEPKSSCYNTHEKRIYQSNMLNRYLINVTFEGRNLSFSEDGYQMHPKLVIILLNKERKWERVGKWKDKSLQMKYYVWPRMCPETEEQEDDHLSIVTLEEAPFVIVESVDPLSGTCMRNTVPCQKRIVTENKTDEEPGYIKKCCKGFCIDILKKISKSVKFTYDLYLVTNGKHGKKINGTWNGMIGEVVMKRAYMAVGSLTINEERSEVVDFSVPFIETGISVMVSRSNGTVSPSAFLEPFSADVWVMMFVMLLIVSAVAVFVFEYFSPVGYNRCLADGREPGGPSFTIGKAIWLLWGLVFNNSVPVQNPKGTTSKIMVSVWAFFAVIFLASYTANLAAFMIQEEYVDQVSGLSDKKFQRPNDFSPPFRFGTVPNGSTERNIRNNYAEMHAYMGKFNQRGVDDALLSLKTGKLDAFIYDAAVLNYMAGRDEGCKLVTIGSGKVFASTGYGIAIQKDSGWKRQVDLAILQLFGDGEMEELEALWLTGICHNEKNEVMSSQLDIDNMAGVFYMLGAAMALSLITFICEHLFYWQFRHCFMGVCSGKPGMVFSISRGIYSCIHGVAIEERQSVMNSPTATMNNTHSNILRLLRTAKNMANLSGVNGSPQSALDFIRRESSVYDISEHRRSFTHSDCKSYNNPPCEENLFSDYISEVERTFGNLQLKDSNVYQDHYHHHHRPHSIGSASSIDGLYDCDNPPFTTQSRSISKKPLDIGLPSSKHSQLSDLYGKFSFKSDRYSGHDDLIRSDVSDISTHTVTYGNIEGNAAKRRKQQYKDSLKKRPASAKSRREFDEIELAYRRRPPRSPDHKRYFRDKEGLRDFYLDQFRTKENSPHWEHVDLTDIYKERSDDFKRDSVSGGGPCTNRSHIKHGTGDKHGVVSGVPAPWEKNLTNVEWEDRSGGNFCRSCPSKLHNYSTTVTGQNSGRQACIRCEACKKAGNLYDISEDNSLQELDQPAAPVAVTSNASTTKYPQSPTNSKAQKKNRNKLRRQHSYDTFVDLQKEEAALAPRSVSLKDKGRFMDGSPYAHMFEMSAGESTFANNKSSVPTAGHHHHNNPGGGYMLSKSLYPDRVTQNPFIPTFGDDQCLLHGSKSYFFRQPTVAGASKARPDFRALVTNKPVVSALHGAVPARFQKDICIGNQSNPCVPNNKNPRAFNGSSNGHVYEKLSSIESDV

α1-Adrenergic = α1-Adrenergic binding, displacement of [3H]-prazosin from brain membranes; conditions: 3 μM test compound, 0.25 nM [3H]-prazosin, Wistar rat brain membranes, duplicate
Method: (§4) Binding to the human ether-a-go-go potassium channel (hERG) expressed in HEK293 cells by displacement of 1.5 nM [3H]-astemizole. Each result represents the average of displacement binding experiments done in duplicate at 10 uM of the test compound. Percent displacement of 0.25 nM [3H]-prazosin from Wistar rat brain membranes. Each result represents the average of displacement binding experiments done in duplicate at 3 μM of the test compound.

[4] = biological target: T1, human ether-a-go-go potassium channel (hERG) expressed in HEK293 cells (Homo sapiens, UniProt Q12809); experiment: hERG binding, displacement of [3H]-astemizole; conditions: 10 μM test compound, 1.5 nM [3H]-astemizole, duplicate
T1 construct: expressed in transfected cells; host or cells: HEK293 cells
T1 sequence (Q12809 whole entry): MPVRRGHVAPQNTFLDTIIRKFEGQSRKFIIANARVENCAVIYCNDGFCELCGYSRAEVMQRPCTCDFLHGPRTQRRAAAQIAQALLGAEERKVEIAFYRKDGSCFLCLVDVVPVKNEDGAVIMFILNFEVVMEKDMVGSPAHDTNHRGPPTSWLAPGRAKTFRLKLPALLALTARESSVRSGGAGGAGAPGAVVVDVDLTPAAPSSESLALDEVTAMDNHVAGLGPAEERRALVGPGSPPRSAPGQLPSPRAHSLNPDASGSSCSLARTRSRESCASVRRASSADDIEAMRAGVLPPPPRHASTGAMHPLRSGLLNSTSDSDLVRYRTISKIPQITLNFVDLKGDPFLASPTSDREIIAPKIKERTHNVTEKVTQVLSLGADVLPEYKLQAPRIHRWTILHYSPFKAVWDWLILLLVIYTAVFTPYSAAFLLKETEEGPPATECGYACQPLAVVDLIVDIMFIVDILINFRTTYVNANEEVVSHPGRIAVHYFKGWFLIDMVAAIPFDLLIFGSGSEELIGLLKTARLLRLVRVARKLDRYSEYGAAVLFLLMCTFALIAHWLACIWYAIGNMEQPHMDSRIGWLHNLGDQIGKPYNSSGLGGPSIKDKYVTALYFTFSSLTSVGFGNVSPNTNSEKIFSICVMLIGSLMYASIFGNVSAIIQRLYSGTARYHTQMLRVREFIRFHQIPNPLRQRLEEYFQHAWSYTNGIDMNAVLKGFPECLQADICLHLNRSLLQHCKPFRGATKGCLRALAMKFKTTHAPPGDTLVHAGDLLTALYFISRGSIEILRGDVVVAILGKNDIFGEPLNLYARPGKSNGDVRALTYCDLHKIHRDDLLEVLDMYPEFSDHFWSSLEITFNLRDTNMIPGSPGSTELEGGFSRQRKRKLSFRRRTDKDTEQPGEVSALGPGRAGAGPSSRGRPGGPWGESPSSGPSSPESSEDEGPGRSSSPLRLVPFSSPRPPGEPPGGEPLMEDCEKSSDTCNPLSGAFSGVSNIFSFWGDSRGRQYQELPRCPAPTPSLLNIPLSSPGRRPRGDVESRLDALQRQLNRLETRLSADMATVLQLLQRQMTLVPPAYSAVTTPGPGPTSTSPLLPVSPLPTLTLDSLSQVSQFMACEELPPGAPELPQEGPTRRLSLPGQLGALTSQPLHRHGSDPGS
Method: as §4

[5] = biological target: GluN1/GluN2A subtype of NMDA receptors (Rattus norvegicus, UniProt Q00959); experiment: NMDA receptor subunit selectivity, GluN1/GluN2A in Xenopus oocytes; type: cell-based; conditions: 2 min; 10 μM antagonist with 50 μM glutamate and 30 μM glycine, two min; agonists alone = 100%; read-out: GluN2A % Current Remaining
Method: as §1, §2, §3

[6] = biological target: GluN1/GluN2B-NMDA receptors (Homo sapiens, UniProt Q05586+Q13224); experiment: Noncompetitive block of GluN1/GluN2B-NMDA receptors in Xenopus oocytes; type: cell-based; conditions: 0.1 μM compound 24; increasing glutamate (30 μM glycine) or increasing glycine (30 μM glutamate)
Method: Results shown are the mean±SEM of 7 (panel A) or 6 (panel B) oocytes.
Stage V and VI oocytes were surgically removed from the ovaries of large, well-fed and healthy Xenopus laevis anesthetized with 3-amino-benzoic acid ethyl ester (3 gm/l). Clusters of isolated oocytes were incubated with 292 U/ml Worthington (Freehold, N.J.) type IV collagenase or 1.3 mg/ml collagenase (Life Technologies, Gaithersburg, Md.; 17018-029) for 2 hr in Ca^2+-free solution comprised of (in mM) 115 NaCl, 2.5 KCl, and 10 HEPES, pH 7.5, with slow agitation to remove the follicular cell layer. Oocytes were then washed in the same solution supplemented with 1.8 mM CaCl2 and maintained in Barth's solution comprised of (in mM): 88 NaCl, 1 KCl, 2.4 NaHCO3, 10 HEPES, 0.82 MgSO4, 0.33 Ca(NO3)2, and 0.91 CaCl2 and supplemented with 100 μg/ml gentamycin, 10 μg/ml streptomycin, and 10 μg/ml penicillin. […]
Two electrode voltage-clamp recordings were made 2-7 days post-injection. […] Oocytes were recorded under voltage clamp at −40 mV. […] The baseline leak current at −40 mV was measured before and after recording, and the full recording linearly corrected for any change in leak current. The level of inhibition by applied experimental compounds was expressed as a percent of the initial glutamate response, and averaged together across oocytes from multiple experiments. […]

[7] = pH 6.9, 50 μM glutamate, read-out: Human pH 6.9 IC50
[8] = pH 7.4, 50 μM glutamate, read-out: Human pH 7.4 IC50

O=C1CCc2cc(OCC3CCN(C(=O)/C=C/c4ccc(Cl)c(Cl)c4)CC3)ccc2N1 [Compound 6, (E)-6-((1-(3-(3,4-dichlorophenyl)acryloyl)piperidin-4-yl)methoxy)-3,4-dihydroquinolin-2(1H)-one]
remaining activity at 10 µM [1]: 101% | IC50 (GluN1/GluN2B receptors [2]): 1270 nM | Human pH Boost Ratio (IC50 pH 7.6/IC50 pH 6.9) (GluN1/GluN2B receptors [3]): 1.1 | IC50 (GluN1/GluN2B receptors [3]; [7]): 886 nM | IC50 (GluN1/GluN2B receptors [3]; [8]): 1640 nM | α1-Adrenergic binding % Displacement @ 3 μM (α1-Adrenergic): 28% | hERG Binding % Displacement @ 10 μM [4]: 85% | remaining activity at 10 µM [5]: 103%

O=C1CCc2cc(OCC3CN(C(=O)Nc4ccc(C(F)(F)F)cc4)C3)ccc2N1 [Compound 24, 3-(((2-oxo-1,2,3,4-tetrahydroquinolin-6-yl)oxy)methyl)-N-(4-(trifluoromethyl)phenyl)azetidine-1-carboxamide]
remaining activity at 10 µM [1]: 84.5% | IC50 (GluN1/GluN2B receptors [2]): 54 nM | Human pH Boost Ratio (IC50 pH 7.6/IC50 pH 6.9) (GluN1/GluN2B receptors [3]): 3.6 | IC50 (GluN1/GluN2B receptors [3]; [7]): 27 nM | IC50 (GluN1/GluN2B receptors [3]; [8]): 74 nM | α1-Adrenergic binding % Displacement @ 3 μM (α1-Adrenergic): 12% | hERG Binding % Displacement @ 10 μM [4]: 68% | remaining activity at 10 µM [5]: 94.2% | Block on increasing glutamate and increasing glycine [6]: cannot overcome the block

O=C1CCc2cc(OCC3CN(C(=O)Nc4ccc(Cl)cc4)C3)ccc2N1 [Compound 21, N-(4-chlorophenyl)-3-(((2-oxo-1,2,3,4-tetrahydroquinolin-6-yl)oxy)methyl)azetidine-1-carboxamide]
remaining activity at 10 µM [1]: 89.2% | IC50 (GluN1/GluN2B receptors [2]): 166 nM | Human pH Boost Ratio (IC50 pH 7.6/IC50 pH 6.9) (GluN1/GluN2B receptors [3]): 1.7 | IC50 (GluN1/GluN2B receptors [3]; [7]): 103 nM | IC50 (GluN1/GluN2B receptors [3]; [8]): 170 nM | α1-Adrenergic binding % Displacement @ 3 μM (α1-Adrenergic): 2% | hERG Binding % Displacement @ 10 μM [4]: 25% | remaining activity at 10 µM [5]: 102%

O=C(Nc1ccc(Cl)c(Cl)c1)N1CCC(COc2ccc(O)cc2)CC1 [Compound 35, N-(3,4-dichlorophenyl)-4-((4-hydroxyphenoxy)methyl)-piperidine-1-carboxamide]
remaining activity at 10 µM [1]: 104% | Human pH Boost Ratio (IC50 pH 7.6/IC50 pH 6.9) (GluN1/GluN2B receptors [3]): 1.2 | IC50 (GluN1/GluN2B receptors [3]; [7]): 764 nM | remaining activity at 10 µM [5]: 104%

O=C1CCc2cc(OCC3CN(C(=O)Nc4ccc(Cl)c(Cl)c4)C3)ccc2N1 [Compound 23, N-(3,4-dichlorophenyl)-3-(((2-oxo-1,2,3,4-tetrahydroquinolin-6-yl)oxy)methyl)azetidine-1-carboxamide]
remaining activity at 10 µM [1]: 87.6% | IC50 (GluN1/GluN2B receptors [2]): 53 nM | Human pH Boost Ratio (IC50 pH 7.6/IC50 pH 6.9) (GluN1/GluN2B receptors [3]): 3.0 | IC50 (GluN1/GluN2B receptors [3]; [7]): 19 nM | IC50 (GluN1/GluN2B receptors [3]; [8]): 41 nM | α1-Adrenergic binding % Displacement @ 3 μM (α1-Adrenergic): 25% | hERG Binding % Displacement @ 10 μM [4]: 60% | remaining activity at 10 µM [5]: 94.6%

O=C1CCc2cc(OCC3CN(C(=O)n4ccnc4)C3)ccc2N1 [Compound 26, 6-((1-(1H-imidazole-1-carbonyl)azetidin-3-yl)methoxy)-3,4-dihydroquinolin-2(1H)-one]
remaining activity at 10 µM [1]: 94.9% | IC50 (GluN1/GluN2B receptors [2]): 6100 nM | IC50 (GluN1/GluN2B receptors [3]; [7]): > 30000 nM | IC50 (GluN1/GluN2B receptors [3]; [8]): > 10000 nM | α1-Adrenergic binding % Displacement @ 3 μM (α1-Adrenergic): <1% | hERG Binding % Displacement @ 10 μM [4]: <1% | remaining activity at 10 µM [5]: 102%
